Columns and labels:
ear vessels of the mice = assay: In vivo microscopy of ear vessels: FITC-dextran leakage and vascular diameter after histamine; parameters: species or system mouse
Protocol: To visualize the ear vessels of the mice, 70 kDa fluorescein isothiocyanate-dextran (10 mg/kg, manufactured by Sigma-Aldrich) was injected intravenously. Then, immediately after the administration of fluorescein isothiocyanate-dextran, 5,6-DiHETE (0.1 μg) was administered by instillation (percutaneously administered) as a pretreatment, and this group of mice was designated as a “5,6-DiHETE-administered group.” As a control group, a group of mice not administered with 5,6-DiHETE was designated as a “[…]-administered group”. Then, 15 minutes after the administration by instillation, histamine (400 μg) was administered by instillation (percutaneously administered) into the ventral surface of the ears for both the groups. Next, the mice were placed on the stage of a microscope confocal microscope (ECLIPSE Ti with C1 confocal system, manufactured by Nikon Corporation), and their body temperatures were maintained at 37° C. Dextran leakage and vascular diameter in the ears were monitored every minute in a period from 0 to 30 minutes after the administration of histamine using EZ-C1 Free Viewer (manufactured by Nikon Corporation), and the dextran leakage, artery diameter and vein diameter were quantified according to the description of Omori, K. et al., British Journal of Pharmacology, 171:4879-4889 (2014). It is known that smooth muscle contraction reduces the downstream blood flow and limits the vascular leakage, whereas smooth muscle relaxation (increase of vascular diameter) increases the blood flow, thereby leading to vascular leakage.

NO production in HUVECs = assay: Histamine-induced NO production (nitrite and nitrate); type: cell-based, human; details: pretreatment 0.1 μM, 15 minutes; histamine 10 μM
Protocol: In Examples 4 to 6, human umbilical vein endothelial cells (hereinafter, sometimes referred to as “HUVECs”, manufactured by Lonza) were cultured in EGM-2 (manufactured by Lonza K.K.). These cells (passages 4 to 9) were used for experiments after 4-hour starvation in EBM-2 (manufactured by Lonza K.K.) containing 2% FBS.
The HUVECs were washed three times with HEPES and incubated in HEPES supplemented with 1 mM L-arginine and 10 μM tetrahydrobiopterin. After equilibration for 30 minutes, the medium was exchanged, and the cells were incubated for additional 30 minutes. […] The conditioned media before and after the stimulation (100 μL each) were collected and centrifuged in each amount of 300 g for 3 minutes. The supernatants were collected, and used to measure nitrite and nitrate, as stable metabolites of NO, by an ENO-20 NOx analyzer (manufactured by Eicom Corporation). The degrees of increases of nitrite and nitrate levels after the stimulation were normalized with cellular protein contents.

[1] = system: DSS-induced colitis model mice; assay: DSS-induced colitis: histologic score and colon edema (wet/dry weight ratio); type: in vivo, mouse (C57BL/6); details: Day 14; 50 μg/kg/day intraperitoneally on Days 9, 11 and 13
Description: C57BL/6 strain mice (male, 8 to 12 weeks old) were fed with water containing 2% dextran sodium sulfate (manufactured by MP Bio, hereinafter sometimes referred to as “DSS”) for 4 days to prepare colitis model mice (hereinafter, sometimes referred to as “colitis group” in Examples 7 to 10). The mice taken with DSS for 4 days were fed with normal water from Day 5. The DSS intake start date was defined as Day 1 of the test, and the day before the DSS intake start date was defined as Day 0 of the test. In addition, a group in which C57BL/6 strain mice (male, 8 to 12 weeks old) were fed with normal water was defined as a “healthy group” (the same applies to Examples 8 to 10).
To investigate the role of 5,6-DiHETE in the healing phase, the colitis model mice prepared in Example 7(1) were intraperitoneally injected with 5,6-DiHETE (manufactured by Cayman Chemical) (50 μg/kg/day) or HC-067047 (manufactured by Cayman Chemical) (1 mg/kg/day) on Days 9, 11 and 13 of the test (hereinafter, sometimes referred to as “5,6-DiHETE-administered group” and “HC-067047-administered group,” respectively, in Examples 9 and 10). HC-067047 is known to inhibit an increase of calcium ion concentration in endothelial cells.
Distal colon sections on Day 14 of the test in the healthy group, colitis group, 5,6-DiHETE-administered group and HC-067047-administered group were fixed in 4% paraformaldehyde for 24 hours, embedded in paraffin and cut into 2 μm-thick sections. Hematoxylin staining and eosin staining of these sections were performed according to a conventional method. The histologic score was then decided according to the description of Kruschewski M. et al., Digestive Diseases and Sciences, 46: 2336-2343 (2001) to evaluate the colitis severity.
The wet/dry weight ratio was used as an index of colon edema (Rachmilewitz D. et al., Gastroenterology, 97: 326-337(1989)). Specifically, the distal colon was collected, and the wet weight was measured. The distal colon was then dried at 60 C for 24 hours, and, thereafter, the dry weight was measured.

[2] = 0.1 μg pretreatment 15 minutes before histamine 400 μg

CC/C=C\C/C=C\C/C=C\C/C=C\C[C@@H](O)[C@@H](O)CCCC(=O)O (racemic) [5,6-DiHETE, (±) 5,6-dihydroxy-8Z,11Z,14Z,17Z-eicosatetraenoic acid]
histamine-induced increase of vein diameter (ear vessels of the mice; [2]): not inhibited | mean fluorescence intensity of FITC-dextran extravasation vs histamine-administered group (ear vessels of the mice; [2]): significantly decreased | artery diameter as compared with arteries nonstimulated with histamine (ear vessels of the mice; 0.1 μg pretreatment by instillation 15 minutes before histamine 400 μg): 132±15% | histamine-induced NO production (NO production in HUVECs): 0.11±0.06 pmol/μg protein | colon edema, wet/dry weight ratio [1]: 5.2±0.2 | histologic score of colitis [1]: 3.3±0.5
